In PubChem BioAssay AID1259407 (Chemical Carcinogenesis Research Information System (CCRIS), 2018):
Active and inactive are the calls of the source. No rule for the calls is given here.

Test system: CCRIS mutagenicity, Ames/micronucleus/aberration tests
Assay: CCRIS mutagenicity studies
[1] = Test System: AMES SALMONELLA TYPHIMURIUM, Strain/Indicator: TA100, Metabolic Activation: NONE, Method: PREINCUBATION

With `CCN(CC)C(=O)/C(Cl)=C(\C)OP(=O)(OC)OC` the mutagenic call (End Point: IN VITRO CHROMOSOMAL ABERRATIONS, Test System: HUMAN PERIPHERAL BLOOD LYMPHOCYTES, Metabolic Activation: NONE) was “active; positive (structural changes)”, the mutagenic call (Test System: AMES SALMONELLA TYPHIMURIUM, Strain/Indicator: G46, Metabolic Activation: HOST-MEDIATED, Method: STANDARD PLATE) was “active; positive” and the mutagenic call (Test System: AMES SALMONELLA TYPHIMURIUM, Strain/Indicator: TA97A, Metabolic Activation: NONE, Method: STANDARD PLATE) was “inactive; negative”. The mutagenic call (Test System: AMES SALMONELLA TYPHIMURIUM, Strain/Indicator: TA97A, Metabolic Activation: PLANT, HOMOGENATE, S-14, Method: STANDARD PLATE) was “inactive; negative”, the mutagenic call (Test System: AMES SALMONELLA TYPHIMURIUM, Strain/Indicator: TA97A, Metabolic Activation: S-9, Method: STANDARD PLATE) was “inactive; negative” and the mutagenic call (Test System: AMES SALMONELLA TYPHIMURIUM, Strain/Indicator: TA98, Metabolic Activation: NONE, Method: STANDARD PLATE) was “inactive; negative”. For the same compound, the mutagenic call (Test System: AMES SALMONELLA TYPHIMURIUM, Strain/Indicator: TA98, Metabolic Activation: PLANT, HOMOGENATE, S-14, Method: STANDARD PLATE) was “inactive; negative”, the mutagenic call (Test System: AMES SALMONELLA TYPHIMURIUM, Strain/Indicator: TA98, Metabolic Activation: S-9, Method: STANDARD PLATE) was “inactive; negative” and the mutagenic call [1] was “active; positive”. The mutagenic call (Test System: AMES SALMONELLA TYPHIMURIUM, Strain/Indicator: TA100, Metabolic Activation: PLANT, HOMOGENATE, S-14, Method: STANDARD PLATE) was “inactive; negative”, the mutagenic call (Test System: AMES SALMONELLA TYPHIMURIUM, Strain/Indicator: TA100, Metabolic Activation: S-9, Method: STANDARD PLATE) was “inactive; negative” and the mutagenic call (Test System: AMES SALMONELLA TYPHIMURIUM, Strain/Indicator: TA102, Metabolic Activation: NONE, Method: STANDARD PLATE) was “inactive; negative”. The mutagenic call (Test System: AMES SALMONELLA TYPHIMURIUM, Strain/Indicator: TA104, Metabolic Activation: NONE, Method: STANDARD PLATE) was “inactive; negative”, the mutagenic call (Test System: AMES SALMONELLA TYPHIMURIUM, Strain/Indicator: TA1535, Metabolic Activation: NONE, Method: STANDARD PLATE) was “inactive; negative” and the mutagenic call (Test System: AMES SALMONELLA TYPHIMURIUM, Strain/Indicator: TA1535, Metabolic Activation: PLANT, HOMOGENATE, S-14, Method: STANDARD PLATE) was “inactive; negative”. The mutagenic call (Test System: AMES SALMONELLA TYPHIMURIUM, Strain/Indicator: TA1535, Metabolic Activation: S-9, Method: STANDARD PLATE) was “inactive; negative”.

`Cc1ccc2cc3c4c(ccc3c3c2c1CC3)C=C[C@H](O)[C@H]4O` was tested, and the mutagenic call (Test System: CHINESE HAMSTER V-79, Strain/Indicator: V-79/8-AZAGUANINE, Metabolic Activation: NONE, Method: STANDARD PLATE) was “active; positive”.

With `O=CNc1ccc(Oc2ccc(Cl)cc2Cl)cc1` the mutagenic call (Test System: AMES SALMONELLA TYPHIMURIUM, Strain/Indicator: TA100, Metabolic Activation: NONE, Method: STANDARD PLATE) was “inactive; negative” and the mutagenic call (Test System: AMES SALMONELLA TYPHIMURIUM, Strain/Indicator: TA100, Metabolic Activation: RAT, LIVER, S-9, KANECLOR 500, Method: STANDARD PLATE) was “active; positive”.

`CC(=O)Nc1cccc(N)c1` was tested, and the mutagenic call (Test System: AMES SALMONELLA TYPHIMURIUM, Strain/Indicator: TA97, Metabolic Activation: HAMSTER, LIVER, S-9, AROCLOR 1254 (10%), Method: PREINCUBATION) was “active; positive”, the mutagenic call (Test System: AMES SALMONELLA TYPHIMURIUM, Strain/Indicator: TA97, Metabolic Activation: NONE, Method: PREINCUBATION) was “inactive; negative” and the mutagenic call (Test System: AMES SALMONELLA TYPHIMURIUM, Strain/Indicator: TA97, Metabolic Activation: RAT, LIVER, S-9, AROCLOR 1254 (10%), Method: PREINCUBATION) was “active; positive”. For the same compound, the mutagenic call (Test System: AMES SALMONELLA TYPHIMURIUM, Strain/Indicator: TA98, Metabolic Activation: HAMSTER, LIVER, S-9, AROCLOR 1254 (10%), Method: PREINCUBATION) was “active; positive”, the mutagenic call (Test System: AMES SALMONELLA TYPHIMURIUM, Strain/Indicator: TA98, Metabolic Activation: NONE, Method: PREINCUBATION) was “inactive; negative” and the mutagenic call (Test System: AMES SALMONELLA TYPHIMURIUM, Strain/Indicator: TA98, Metabolic Activation: RAT, LIVER, S-9, AROCLOR 1254 (10%), Method: PREINCUBATION) was “active; positive”. The mutagenic call (Test System: AMES SALMONELLA TYPHIMURIUM, Strain/Indicator: TA100, Metabolic Activation: HAMSTER, LIVER, S-9, AROCLOR 1254 (10%), Method: PREINCUBATION) was “active; positive”, the mutagenic call [1] was “inactive; negative” and the mutagenic call (Test System: AMES SALMONELLA TYPHIMURIUM, Strain/Indicator: TA100, Metabolic Activation: RAT, LIVER, S-9, AROCLOR 1254 (10%), Method: PREINCUBATION) was “inactive; negative”. For the same compound, the mutagenic call (Test System: AMES SALMONELLA TYPHIMURIUM, Strain/Indicator: TA1535, Metabolic Activation: HAMSTER, LIVER, S-9, AROCLOR 1254 (10%), Method: PREINCUBATION) was “inactive; negative”, the mutagenic call (Test System: AMES SALMONELLA TYPHIMURIUM, Strain/Indicator: TA1535, Metabolic Activation: NONE, Method: PREINCUBATION) was “inactive; negative” and the mutagenic call (Test System: AMES SALMONELLA TYPHIMURIUM, Strain/Indicator: TA1535, Metabolic Activation: RAT, LIVER, S-9, AROCLOR 1254 (10%), Method: PREINCUBATION) was “inactive; negative”.
